What was measured:
Type in all cases: in vivo, human
[1] = tested on: drug naive patients with type 2 diabetes mellitus; test: Double-blind first line therapy clinical study: hemoglobin A1c (HbA1c); conditions: for frequency of subjects achieving glycemic target of HbA1c<7%: following 20 weeks of double-blind therapy; for glycemic response for baseline HbA1c levels >9%: initial therapy
Method: The dosage strengths of fixed combination product evaluated included metformin 250 mg with glyburide 1.25 mg, and metformin 500 mg with glyburide 2.5 mg. Glycemic control was assessed using Hemoglobin A1c (HbA1c), the gold-standard measure of long-term glycemic control. Mean change from baseline in HbA1c following a 20 week treatment period (4 weeks stable once daily dose, 4 week titration and 12 weeks stable dose) were compared. The treatment phase continued for an additional 12 weeks to assess durability of efficacy. This study was a 34 week, multicenter, randomized, placebo-controlled, double-blind, parallel study with an optional long-term, open-label treatment phase. The primary outcome variable for efficacy was the change from baseline in HbA1c of the two combination therapies relative to placebo following 20 weeks of randomized treatment. 2. […] Therapeutic plasma glucose response will be defined as a FPG<126 mg/dL (based on current ADA guidelines for FPG). […] Patients were drug naive or had no oral antihyperglycemic therapy for the 2 months prior to screening. […] However, recruitment continued for up to 6 months to recruit up to a maximum of 150 patients per arm to provide additional safety information. The design included 3 periods as follows: Period B began the randomized, double-blind, parallel quadruple dummy treatment phase. Eligible patients were randomized to 1 of 5 study arms which included placebo, glyburide monotherapy, metformin monotherapy, and two different dose strengths of fixed combination metformin/glyburide product (Examples 1 and 2). Subjects were maintained on once daily dosing for a 4 week period so that the contribution of the individual components of the combination product can be assessed by short term glycemic parameters. Period C was the continuation of the randomized, double-blind treatment phase. Subjects were titrated for glycemic control over the first four weeks then dose was maintained for a 24 week stable dose treatment segment. Analysis for the primary outcome, the change from baseline in HbA1c of the two combination therapies (Examples 1 and 2) relative to placebo, was assessed at week 16 of Period C which was after 20 weeks of randomized, double-blind treatment. This was done at this time as there had been adequate time for stabilization of HbA1c and for safety reasons as it was anticipated that a high number of placebo treated patients may have had to discontinue randomized study medication due to insufficient glycemic control as treatment duration was extended. […] The study remained blinded and those subjects who discontinued randomized study drug due to lack of efficacy were eligible to begin the long-term, open-label treatment phase with fixed combination product. Following completion of the single-blind lead-in phase (Period A), qualifying subjects commenced therapy in the randomized, double-blind treatment phase (Period B). […] Following completion of the 4 week stable once daily dose phase (Period B) subjects continued the same randomized therapy in the 28 week titration/stable dose treatment phase (Period C). Study medication was titrated at visits Cl, C15 and C29. Medication was dosed with the first morning meal and with the evening meal. […] After the 4 week titration segment in Period C, subjects continued on a stable dose of study medication for the remainder of Period C.

[2] = tested on: drug naive patients with type 2 diabetes mellitus; test: Double-blind first line therapy clinical study: post-prandial glucose (PPG) and PPG excursion; conditions: for 2-hour postprandial glucose excursion from a fasting baseline: placebo 40.3 mg/dL; for decrease in post-prandial glucose excursion: week 20
Method: The term “post-prandial excursion” as employed herein refers to the difference between post-prandial glucose (PPG) and fasting plasma glucose (FPG). […] The dosage strengths of fixed combination product evaluated included metformin 250 mg with glyburide 1.25 mg, and metformin 500 mg with glyburide 2.5 mg. Glycemic control was assessed using Hemoglobin A1c (HbA1c), the gold-standard measure of long-term glycemic control. Mean change from baseline in HbA1c following a 20 week treatment period (4 weeks stable once daily dose, 4 week titration and 12 weeks stable dose) were compared. The treatment phase continued for an additional 12 weeks to assess durability of efficacy. This study was a 34 week, multicenter, randomized, placebo-controlled, double-blind, parallel study with an optional long-term, open-label treatment phase. […] 3. […] Patients were drug naive or had no oral antihyperglycemic therapy for the 2 months prior to screening. […] However, recruitment continued for up to 6 months to recruit up to a maximum of 150 patients per arm to provide additional safety information. The design included 3 periods as follows: Period B began the randomized, double-blind, parallel quadruple dummy treatment phase. Eligible patients were randomized to 1 of 5 study arms which included placebo, glyburide monotherapy, metformin monotherapy, and two different dose strengths of fixed combination metformin/glyburide product (Examples 1 and 2). Subjects were maintained on once daily dosing for a 4 week period so that the contribution of the individual components of the combination product can be assessed by short term glycemic parameters. Period C was the continuation of the randomized, double-blind treatment phase. Subjects were titrated for glycemic control over the first four weeks then dose was maintained for a 24 week stable dose treatment segment. Analysis for the primary outcome, the change from baseline in HbA1c of the two combination therapies (Examples 1 and 2) relative to placebo, was assessed at week 16 of Period C which was after 20 weeks of randomized, double-blind treatment. This was done at this time as there had been adequate time for stabilization of HbA1c and for safety reasons as it was anticipated that a high number of placebo treated patients may have had to discontinue randomized study medication due to insufficient glycemic control as treatment duration was extended. […] The study remained blinded and those subjects who discontinued randomized study drug due to lack of efficacy were eligible to begin the long-term, open-label treatment phase with fixed combination product. Following completion of the single-blind lead-in phase (Period A), qualifying subjects commenced therapy in the randomized, double-blind treatment phase (Period B). […] Following completion of the 4 week stable once daily dose phase (Period B) subjects continued the same randomized therapy in the 28 week titration/stable dose treatment phase (Period C). Study medication was titrated at visits Cl, C15 and C29. Medication was dosed with the first morning meal and with the evening meal. […] After the 4 week titration segment in Period C, subjects continued on a stable dose of study medication for the remainder of Period C.

[3] = tested on: drug naive patients with type 2 diabetes mellitus; test: Double-blind first line therapy clinical study: body weight and plasma lipid profile; conditions: as glycemic control improved
Excerpt: This study was a 34 week, multicenter, randomized, placebo-controlled, double-blind, parallel study with an optional long-term, open-label treatment phase. […] Patients were drug naive or had no oral antihyperglycemic therapy for the 2 months prior to screening. […] However, recruitment continued for up to 6 months to recruit up to a maximum of 150 patients per arm to provide additional safety information. The design included 3 periods as follows: Period B began the randomized, double-blind, parallel quadruple dummy treatment phase. Eligible patients were randomized to 1 of 5 study arms which included placebo, glyburide monotherapy, metformin monotherapy, and two different dose strengths of fixed combination metformin/glyburide product (Examples 1 and 2). Subjects were maintained on once daily dosing for a 4 week period so that the contribution of the individual components of the combination product can be assessed by short term glycemic parameters. Period C was the continuation of the randomized, double-blind treatment phase. […] Analysis for the primary outcome, the change from baseline in HbA1c of the two combination therapies (Examples 1 and 2) relative to placebo, was assessed at week 16 of Period C which was after 20 weeks of randomized, double-blind treatment. […]

[4] = Week 20 of double-blind therapy
[5] = Week 32 of double-blind therapy

COc1ccc(Cl)cc1C(=O)NCCc1ccc(S(=O)(=O)NC(=O)NC2CCCCC2)cc1 [glyburide]
mean HbA1c level [1, 4]: 6.64% | mean HbA1c level [1, 5]: 6.78% | frequency of subjects achieving glycemic target of HbA1c<7% [1]: 60% | glycemic response for baseline HbA1c levels >9% [1]: plateauing of glycemic response | 2-hour postprandial glucose excursion from a fasting baseline [2]: 38.2 mg/dL | decrease in post-prandial glucose excursion [2]: 6.8 | early weight gain [3]: 2 kg

CN(C)C(=N)N=C(N)N [metformin]
mean HbA1c level [1, 4]: 6.79% | mean HbA1c level [1, 5]: 6.96% | frequency of subjects achieving glycemic target of HbA1c<7% [1]: 50% | glycemic response for baseline HbA1c levels >9% [1]: plateauing of glycemic response | postprandial glucose excursion lowering, comparison in words ([2]; evaluating the excursion rather than the absolute value): better postprandial glucose lowering than glyburide and placebo | 2-hour postprandial glucose excursion from a fasting baseline [2]: 29.5 mg/dL | decrease in post-prandial glucose excursion [2]: 15.2
